Measurements published in ChEMBL document CHEMBL1129278, “Binding of arylpiperazines, (aryloxy)propanolamines, and tetrahydropyridylindoles to the 5-HT1A receptor: contribution of the molecular lipophilicity potential to three-dimensional quantitative structure-affinity relationship models” (J Med Chem, 1996).

The compounds below were run against T1, 5-hydroxytryptamine receptor 1A (Rattus norvegicus, UniProt P19327).
T1 sequence (P19327 whole entry): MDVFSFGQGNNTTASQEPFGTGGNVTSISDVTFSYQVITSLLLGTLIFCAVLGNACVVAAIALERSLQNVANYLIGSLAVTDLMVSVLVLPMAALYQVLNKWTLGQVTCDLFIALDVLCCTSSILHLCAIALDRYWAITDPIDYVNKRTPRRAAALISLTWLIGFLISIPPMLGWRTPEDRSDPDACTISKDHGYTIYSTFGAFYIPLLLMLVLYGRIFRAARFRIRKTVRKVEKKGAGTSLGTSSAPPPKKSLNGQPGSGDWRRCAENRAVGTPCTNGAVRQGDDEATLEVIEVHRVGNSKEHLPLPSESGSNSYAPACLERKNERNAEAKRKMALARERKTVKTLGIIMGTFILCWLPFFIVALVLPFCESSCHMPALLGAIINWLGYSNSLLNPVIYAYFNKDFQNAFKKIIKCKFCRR

SMILES	Ki
COc1ccccc1N1CCN(CCCCNC(=O)C2CCCCC2)CC1	0.603 nM
COc1ccc2cccc(N3CCN(CCNC(=O)c4cccs4)CC3)c2c1	0.562 nM
CN1CC=C(c2c[nH]c3ccc(Cl)cc23)CC1	26.3 nM
CCCN(C1COc2cccc(OC)c2C1)N1C(=O)C2CCCC2C1=O (stereo in doubt; 247)	1 nM
Cc1[nH]c2ccc(O)cc2c1CCN	2510 nM
CCCN(CCC)C1COc2ccccc2C1 (configuration not stated)	200 nM
CC(C)NCC(O)COc1cccc2[nH]ccc12 (configuration not stated) [PINDOLOL]	21.9 nM
CC1(C)CC(=O)N(CCCCN2CCN(c3ccccn3)CC2)C(=O)C1	70.8 nM
CCCN(CCCCNS(=O)(=O)c1ccc(C)cc1)C1COc2cccc(OC)c2C1 (configuration not stated)	1 nM
CC(C)(C)NC[C@H](O)COc1ccccc1C1CCCC1 [PENBUTOLOL]	2.4 nM
COc1ccccc1N1CCN(CCc2ccccc2)CC1	1.82 nM
N#Cc1ccc2[nH]cc(C3=CCNCC3)c2c1	16.2 nM
c1ccc(N2CCNCC2)cc1 [PHENYLPIPERAZINE]	1510 nM
CCCN(CCCCN1C(=O)CC(C)(C)CC1=O)C1COc2cccc(OC)c2C1 (configuration not stated)	2 nM
NCCc1c[nH]c2ccc(C(N)=O)cc12	0.295 nM
COc1ccccc1OCCNCC(O)COc1cccc2[nH]c3ccccc3c12 (configuration not stated) [CARVEDILOL]	3.16 nM
CNCCc1c[nH]c2ccc(O)cc12	4.9 nM
CCCN(CCC)C1CCc2cccc(C(=O)O)c2C1 (configuration not stated)	302 nM
CCCN1CC=C(c2c[nH]c3ccc(C(=O)OC)cc23)CC1	380 nM
COc1ccccc1N1CCN(CCCOc2cccc3ccccc23)CC1	8.91 nM
COc1ccccc1N1CCN(CCCCNC2CC3CCC2C3)CC1 (configuration not stated)	3.98 nM
CC(CN)c1c[nH]c2ccc(O)cc12 (configuration not stated)	85.1 nM
CC(O)CN(CC(C)O)CC(O)COc1cccc2ccccc12 (configuration not stated)	1320 nM
Brc1ccc2[nH]cc(C3=CCNCC3)c2c1	6.46 nM
C=CCOc1ccccc1OCC(O)CNC(C)C (configuration not stated) [OXPRENOLOL]	93.3 nM

SMILES	Ki
CCCN(CCNS(=O)(=O)c1ccc(C)cc1)C1COc2cccc(OC)c2C1 (configuration not stated)	1 nM
O=C(c1ccccc1)N1CCN(c2cccc(Cl)c2)CC1	100000 nM
CNCC(COc1cccc(C(F)(F)F)c1)c1ccccc1 (configuration not stated)	66100 nM
CC(C)NCC(O)COc1ccccc1-n1cccc1 (configuration not stated) [ISAMOLTAN]	49 nM
CC(C)(C)NC[C@H](O)COc1nsnc1N1CCOCC1 [TIMOLOL]	617 nM
O=C1c2ccccc2C(=O)N1CCCCN1CCN(c2cccc(Cl)c2)CC1	4.68 nM
O=C1c2ccccc2S(=O)(=O)N1CCCCN1CCN(c2ccccn2)CC1	6.92 nM
O=C1C=CC(c2[nH]c3ccccc3c2C2=CCNCC2)=NC1	1510 nM
CC(C)CN1CCN(c2cccc(Cl)c2)CC1	64.6 nM
CCCN(CCN1C(=O)c2ccccc2C1=O)C1COc2cccc(OC)c2C1 (configuration not stated)	398 nM
CN1CC=C(c2c[nH]c3ccc(N)cc23)CC1	24500 nM
CCCN(CCC)C1CCc2cccc(OC)c2C1 (configuration not stated)	2.63 nM
CC(C)(C)NCC(O)COc1ccc2c(c1)C[C@H](O)[C@H](O)C2 (some centres not stated)	1070 nM
Clc1ccc2[nH]cc(C3=CCNCC3)c2c1	13.2 nM
CCCOCOCCc1ccc(OCC(O)CNC(C)C)cc1 (configuration not stated)	10000 nM
COc1ccccc1N1CCN(CCCCNCc2ccccc2)CC1	60.3 nM
CC(=O)N1CCN(c2cccc(Cl)c2)CC1	100000 nM
C[C@H](CCc1ccccc1)NC[C@H](O)c1ccc(O)c(C(N)=O)c1 [DILEVALOL]	295 nM
CN1CC=C(c2c[nH]c3ccc([N+](=O)[O-])cc23)CC1	37.2 nM
O=C1c2ccccc2C(=O)N1CCN1CCN(c2ccccc2)CC1	10000 nM
CCCN(C1COc2cccc(OC)c2C1)N1C(=O)C2CCCC2C1=O (stereo in doubt; 255)	0.501 nM
CCCN(C1COc2cccc(OC)c2C1)N1C(=O)c2ccccc2S1(=O)=O (configuration not stated)	0.501 nM
Cn1cc(C(F)(F)F)nc1-c1ccc(OCC(O)CNCCOc2ccc(O)c(C(N)=O)c2)cc1 (configuration not stated) [CGP-20712A]	603 nM
CN(C)CCc1c[nH]c2cc3c(cc12)CCCO3	603 nM
CCCCN1CCN(c2cccc3ccccc23)CC1	7.08 nM

SMILES	Ki
CCCN(CCN1C(=O)CC2(CCCC2)CC1=O)C1COc2cccc(OC)c2C1 (configuration not stated)	15.1 nM
O=C(NCCN1CCN(/C(O)=C2/COCCO2)CC1)c1ccc(F)cc1	9.12 nM
C#Cc1cccc2c1CC(N(CCC)CCC)CC2 (configuration not stated)	15.8 nM
c1ccc2cc(N3CCNCC3)ccc2c1	3240 nM
CN1CCN(c2cccc3c2OCCO3)CC1	22.9 nM
Oc1ccc2cccc(N3CCNCC3)c2c1	3.31 nM
Cc1ccc2[nH]cc(C3=CCN(C)CC3)c2c1	31.6 nM
CCCN(CCC)C1CCc2ccccc2C1 (configuration not stated)	56.2 nM
c1ccc2c(c1)CCC2N1CCN(c2cccc3c2OCCO3)CC1 (configuration not stated)	1.82 nM
CCCN(CCC)CC(O)COc1cccc2ccccc12 (configuration not stated)	447 nM
CCCN(CCCCN1C(=O)CC2(CCCC2)CC1=O)C1COc2cccc(O)c2C1 (stereo in doubt; 258)	0.501 nM
CCCN(CCC)C1CCc2cccc(CO)c2C1 (configuration not stated)	129 nM
COc1ccccc1N1CCN(CCCCc2ccccc2)CC1	1 nM
Oc1ccc2[nH]cc(C3=CCNCC3)c2c1	15.1 nM
COc1ccccc1N1CCN(CCN2C(=O)c3ccccc3C2=O)CC1	1000 nM
Cc1ccc(OCC(O)CNC(C)C)c2c1CCC2 (configuration not stated)	19100 nM
CC(C)NCC(O)COc1ccccc1 (configuration not stated)	170 nM
CCCCCCCCN1CCN(c2ccccc2)CC1	11.2 nM
CN(C)CC(O)COc1cccc2ccccc12 (configuration not stated)	347 nM
CCN(CC)C(=O)Nc1ccc(OCC(O)CNC(C)(C)C)c(C(C)=O)c1 (configuration not stated) [CELIPROLOL]	8910 nM
CCCN(CCC)C1CCc2cccc(C)c2C1 (configuration not stated)	61.7 nM
CC(C)C(=O)N1CCN(c2cccc(Cl)c2)CC1	100000 nM
O=[N+]([O-])c1ccc2[nH]cc(C3=CCNCC3)c2c1	18.2 nM
CC(C)NCC(O)COc1ccc(CCOCCOC(C)C)cc1 (configuration not stated)	10000 nM
COc1ccccc1N1CCN(CCCCN2C(=O)CC3(CCCC3)CC2=O)CC1	2 nM

SMILES	Ki
COc1ccccc1N1CCN(CCCc2ccccc2)CC1	3.72 nM
CN(C)CCc1c[nH]c2ccc3c(c12)CCCO3	955 nM
CCCN(CCCCNC(=O)c1ccccc1OC)C1COc2cccc(OC)c2C1 (configuration not stated)	0.501 nM
CCCN(CCC)C1CCc2cccc(C3CCCCC3)c2C1 (configuration not stated)	24 nM
CCCNC1CCc2cccc(OC)c2C1 (configuration not stated)	4.79 nM
CCCN(CCCCCCN1C(=O)CC2(CCCC2)CC1=O)C1COc2cccc(OC)c2C1 (configuration not stated)	0.501 nM
O=C1CC2(CCCC2)CC(=O)N1CCN1CCN(c2ncccn2)CC1	151 nM
CC(C)(C)NCC(O)COc1cccc2c1NC(=O)CC2 (configuration not stated)	224 nM
COc1cccc2c1CC(N)CC2 (configuration not stated)	178 nM
CCCN(CCC)C1CCc2cccc(C#N)c2C1 (configuration not stated)	37.2 nM
CCCN(CCCON1C(=O)CC2(CCCC2)CC1=O)C1COc2cccc(OC)c2C1 (configuration not stated)	0.501 nM
CCCCN(CCCC)CC(O)COc1cccc2ccccc12 (configuration not stated)	224 nM
CNCC(O)CO (configuration not stated)	3310 nM
CC(C)(C)NCC(O)COc1cccc2c1SCCC2 (configuration not stated) [TERTATOLOL]	18.6 nM
CCCN(CCC)C1COc2cccc(OC)c2C1 (configuration not stated)	10 nM
CCCN(CCCCN1CCCCC1)C1COc2cccc(OC)c2C1 (configuration not stated)	1 nM
O=C1c2ccccc2C(=O)N1CCCCN1CCN(c2ccccc2Cl)CC1	5.01 nM
COc1ccccc1N1CCN(CCCCCc2ccccc2)CC1	5.62 nM
CCCN(CCC)C1CCc2cccc(C(=O)C3CCCCC3)c2C1 (configuration not stated)	15.8 nM
COc1cccc2c1CC(N1CCCC1)CO2 (configuration not stated)	3.47 nM
CN1CCN(c2nc3cc(C(F)(F)F)ccc3n3cccc23)CC1	9.55 nM
Clc1cccc(N2CCN(C3CC3)CC2)c1	158 nM
CCCCCCCCN1CCN(c2cccc3c2OCCO3)CC1	1 nM
COc1ccccc1N1CCN(CCCCNc2ccc([N+](=O)[O-])c3nonc23)CC1	0.398 nM
CCCN(CCCNS(=O)(=O)c1ccc(C)cc1)C1COc2cccc(OC)c2C1 (configuration not stated)	1.51 nM

SMILES	Ki
COc1ccccc1OCC(O)CN(C)C (configuration not stated)	3020 nM
CCCN(CCC)C1CCc2cccc(C(C)=O)c2C1 (configuration not stated)	0.708 nM
CN1CCN(c2cccc3ccoc23)CC1	7.94 nM
O=C1c2ccccc2C(=O)N1CCCCN1CCN(c2ccccn2)CC1	6.17 nM
COc1ccc2[nH]cc(CCN(C)C)c2c1 [MEBUFOTENIN]	5.5 nM
CC(C)NCC(O)COc1cccc2[nH]c(OC(=O)OC(C)C)cc12 (configuration not stated)	17.4 nM
CCCN(CCCCN1C(=O)CC2(CCCC2)CC1=O)C1COc2cccc(O)c2C1 (stereo in doubt; 228)	10 nM
CCCN(CCCCN1C(=O)CC2(CCCC2)CC1=O)C1COc2ccccc2C1 (configuration not stated)	1 nM
CN(C)CCc1c[nH]c2ccc(O)cc12 [BUFOTENINE]	25.1 nM
NCCc1c[nH]c2ccc(N)cc12	708 nM
CN1CC=C(c2c[nH]c3ccc(C4COCCO4)cc23)CC1 (configuration not stated)	87.1 nM
CCCN(CCCCN1C(=O)c2ccccc2C1=O)C1COc2cccc(O)c2C1 (configuration not stated)	44.7 nM
CCCN(CCCCN1C(=O)c2ccccc2C1=O)C1COc2cccc(OC)c2C1 (configuration not stated)	2.51 nM
Cn1cc(CCN)c2c3c(ccc21)OCCC3	2630 nM
NCCCCN1CCN(c2ccccc2)CC1	6030 nM
C1=C(c2c[nH]c3ccccc23)CCNC1	141 nM
Fc1ccc2[nH]cc(C3=CCNCC3)c2c1	32.4 nM
COc1ccccc1N1CCN(CCCCNC(=O)C(C)c2ccccc2)CC1 (configuration not stated)	10 nM
CCCN(CCCCN1CCOCC1)C1COc2cccc(OC)c2C1 (configuration not stated)	3.98 nM
O=C1CC2(CCCC2)CC(=O)N1CCCN1CCN(c2ncccn2)CC1	214 nM
CCCN(CCCCN1C(=O)CC2(CCCC2)CC1=O)C1COc2cccc(OC)c2C1 (configuration not stated)	0.1 nM
CCCN(CCCCNC(=O)c1ccc(F)cc1)C1COc2cccc(OC)c2C1 (configuration not stated)	0.2 nM
